Measured values reported in publication PMC5540273, “Progress towards a public chemogenomic set for protein kinases and a call for contributions” (PLoS ONE, 2017).

Tests used:
Experiment in all cases: KINOMEscan competition binding
CAMK1 = CAMK1 (Homo sapiens, UniProt Q14012); conditions: read-out: %Inh CAMK1
CDK7 = CDK7 (Homo sapiens, UniProt P50613); conditions: read-out: %Inh CDK7
ERK5 = ERK5 (Homo sapiens, UniProt Q13164); conditions: read-out: %Inh ERK5
EPHB1 = molecular target: T1, EPHB1 (Homo sapiens, UniProt P54762); conditions: read-out: %Inh EPHB1
T1 sequence (P54762 18-984): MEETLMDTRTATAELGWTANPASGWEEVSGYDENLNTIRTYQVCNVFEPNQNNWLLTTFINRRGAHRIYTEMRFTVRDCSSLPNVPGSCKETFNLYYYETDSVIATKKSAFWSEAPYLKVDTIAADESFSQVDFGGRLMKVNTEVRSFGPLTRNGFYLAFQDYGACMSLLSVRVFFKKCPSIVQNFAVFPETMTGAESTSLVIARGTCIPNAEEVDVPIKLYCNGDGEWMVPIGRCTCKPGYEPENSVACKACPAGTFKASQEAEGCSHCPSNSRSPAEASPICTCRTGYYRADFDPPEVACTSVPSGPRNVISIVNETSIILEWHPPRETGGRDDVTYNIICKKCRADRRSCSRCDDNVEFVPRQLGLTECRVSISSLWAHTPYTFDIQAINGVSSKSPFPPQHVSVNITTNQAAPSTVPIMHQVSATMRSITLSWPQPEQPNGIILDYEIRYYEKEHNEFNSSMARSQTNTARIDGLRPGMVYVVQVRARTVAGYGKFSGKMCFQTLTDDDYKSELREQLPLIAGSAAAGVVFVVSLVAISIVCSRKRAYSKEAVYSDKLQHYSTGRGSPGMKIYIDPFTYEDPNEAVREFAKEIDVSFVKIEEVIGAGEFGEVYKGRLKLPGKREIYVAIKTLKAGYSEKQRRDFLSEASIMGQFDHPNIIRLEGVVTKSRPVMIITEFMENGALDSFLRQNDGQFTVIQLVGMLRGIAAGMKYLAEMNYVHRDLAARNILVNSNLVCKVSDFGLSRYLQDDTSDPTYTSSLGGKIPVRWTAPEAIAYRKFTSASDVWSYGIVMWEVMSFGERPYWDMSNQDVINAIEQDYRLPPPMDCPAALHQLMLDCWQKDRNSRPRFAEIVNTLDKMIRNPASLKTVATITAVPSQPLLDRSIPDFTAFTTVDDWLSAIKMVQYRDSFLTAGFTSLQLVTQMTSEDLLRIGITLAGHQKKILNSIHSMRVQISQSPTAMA

CAMKK2 = CAMKK2 (Homo sapiens, UniProt Q96RR4); conditions: read-out: %Inh CAMKK2
Sequence of CAMKK2 (Q96RR4 whole entry): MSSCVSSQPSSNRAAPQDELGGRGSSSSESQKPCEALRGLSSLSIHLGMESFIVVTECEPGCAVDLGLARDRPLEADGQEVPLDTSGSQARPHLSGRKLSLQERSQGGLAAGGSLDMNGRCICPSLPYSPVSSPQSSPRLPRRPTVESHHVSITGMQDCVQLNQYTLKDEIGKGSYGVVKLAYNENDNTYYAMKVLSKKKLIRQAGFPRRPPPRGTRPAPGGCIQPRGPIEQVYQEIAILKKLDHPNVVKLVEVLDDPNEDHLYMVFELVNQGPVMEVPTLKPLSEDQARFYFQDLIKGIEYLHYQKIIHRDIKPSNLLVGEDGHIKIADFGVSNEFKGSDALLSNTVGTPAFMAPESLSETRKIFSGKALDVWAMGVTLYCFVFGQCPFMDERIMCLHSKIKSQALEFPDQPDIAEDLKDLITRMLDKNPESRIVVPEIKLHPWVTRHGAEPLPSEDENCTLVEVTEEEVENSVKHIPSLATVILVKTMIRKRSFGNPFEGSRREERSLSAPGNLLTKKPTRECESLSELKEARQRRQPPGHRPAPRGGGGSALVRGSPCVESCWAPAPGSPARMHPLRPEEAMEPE

CSNK1G3 = CSNK1G3 (Homo sapiens, UniProt Q9Y6M4); conditions: read-out: %Inh CSNK1G3
Sequence of CSNK1G3 (Q9Y6M4 whole entry): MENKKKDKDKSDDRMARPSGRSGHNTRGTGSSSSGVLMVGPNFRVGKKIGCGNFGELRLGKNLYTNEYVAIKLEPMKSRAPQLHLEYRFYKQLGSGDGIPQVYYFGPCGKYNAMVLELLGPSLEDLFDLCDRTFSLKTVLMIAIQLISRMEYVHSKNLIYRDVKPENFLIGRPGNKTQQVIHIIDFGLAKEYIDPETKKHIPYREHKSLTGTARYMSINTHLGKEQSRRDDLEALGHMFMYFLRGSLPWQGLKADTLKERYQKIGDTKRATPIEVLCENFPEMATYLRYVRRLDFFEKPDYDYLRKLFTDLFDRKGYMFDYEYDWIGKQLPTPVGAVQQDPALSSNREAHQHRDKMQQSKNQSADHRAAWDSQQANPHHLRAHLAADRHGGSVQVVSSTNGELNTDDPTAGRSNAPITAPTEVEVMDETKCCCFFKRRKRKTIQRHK

CSNK2A1 = CSNK2A1 (Homo sapiens, UniProt P68400); conditions: read-out: %Inh CSNK2A1
Sequence of CSNK2A1 (P68400 whole entry): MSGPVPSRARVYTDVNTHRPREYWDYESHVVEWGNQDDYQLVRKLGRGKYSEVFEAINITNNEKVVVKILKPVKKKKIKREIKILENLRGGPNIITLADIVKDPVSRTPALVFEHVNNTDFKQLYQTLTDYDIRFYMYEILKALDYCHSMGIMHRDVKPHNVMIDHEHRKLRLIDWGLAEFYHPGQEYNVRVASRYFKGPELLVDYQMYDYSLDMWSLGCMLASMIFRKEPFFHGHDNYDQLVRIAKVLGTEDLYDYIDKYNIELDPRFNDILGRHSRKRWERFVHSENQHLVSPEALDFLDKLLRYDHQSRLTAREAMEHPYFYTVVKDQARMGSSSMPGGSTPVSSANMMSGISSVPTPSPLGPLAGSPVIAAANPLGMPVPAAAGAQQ

AKT1 = AKT1 (Homo sapiens, UniProt P31749); conditions: read-out: %Inh AKT1
Sequence of AKT1 (P31749 whole entry): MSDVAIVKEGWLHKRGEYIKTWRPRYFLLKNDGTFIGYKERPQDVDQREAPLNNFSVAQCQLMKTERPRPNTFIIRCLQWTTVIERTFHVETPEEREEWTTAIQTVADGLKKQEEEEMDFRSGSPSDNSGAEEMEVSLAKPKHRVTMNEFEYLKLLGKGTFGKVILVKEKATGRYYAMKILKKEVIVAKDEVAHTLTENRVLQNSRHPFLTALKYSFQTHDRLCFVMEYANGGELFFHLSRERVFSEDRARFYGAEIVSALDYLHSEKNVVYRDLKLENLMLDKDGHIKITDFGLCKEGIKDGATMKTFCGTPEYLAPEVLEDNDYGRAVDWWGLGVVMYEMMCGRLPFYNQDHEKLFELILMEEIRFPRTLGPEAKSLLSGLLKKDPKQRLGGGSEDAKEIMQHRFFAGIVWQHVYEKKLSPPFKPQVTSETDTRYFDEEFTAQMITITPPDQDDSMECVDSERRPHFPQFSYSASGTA

HUNK = molecular target: T2, HUNK (Homo sapiens, UniProt P57058); conditions: read-out: %Inh HUNK
T2 sequence (P57058 1-714): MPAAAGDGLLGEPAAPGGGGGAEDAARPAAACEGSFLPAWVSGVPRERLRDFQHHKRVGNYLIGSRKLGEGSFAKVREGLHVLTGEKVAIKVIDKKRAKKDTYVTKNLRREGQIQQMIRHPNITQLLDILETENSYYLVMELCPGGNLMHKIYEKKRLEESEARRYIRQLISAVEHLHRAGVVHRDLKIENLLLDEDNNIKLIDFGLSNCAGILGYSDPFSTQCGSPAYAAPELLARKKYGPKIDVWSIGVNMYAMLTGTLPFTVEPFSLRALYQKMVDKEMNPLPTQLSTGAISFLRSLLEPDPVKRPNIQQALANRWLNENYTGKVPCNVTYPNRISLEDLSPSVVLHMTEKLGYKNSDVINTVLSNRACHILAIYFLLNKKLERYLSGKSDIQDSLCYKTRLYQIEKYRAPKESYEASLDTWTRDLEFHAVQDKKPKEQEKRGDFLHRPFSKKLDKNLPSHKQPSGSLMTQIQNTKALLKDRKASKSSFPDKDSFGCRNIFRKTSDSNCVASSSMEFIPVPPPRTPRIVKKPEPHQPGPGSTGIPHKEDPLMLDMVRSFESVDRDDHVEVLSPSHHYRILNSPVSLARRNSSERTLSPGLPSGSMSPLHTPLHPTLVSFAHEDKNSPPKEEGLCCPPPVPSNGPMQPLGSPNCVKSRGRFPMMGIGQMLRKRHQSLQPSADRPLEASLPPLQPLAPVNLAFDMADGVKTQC

ARK5 = molecular target: T3, ARK5 (Homo sapiens, UniProt O60285); conditions: read-out: %Inh ARK5
T3 sequence (O60285 1-661): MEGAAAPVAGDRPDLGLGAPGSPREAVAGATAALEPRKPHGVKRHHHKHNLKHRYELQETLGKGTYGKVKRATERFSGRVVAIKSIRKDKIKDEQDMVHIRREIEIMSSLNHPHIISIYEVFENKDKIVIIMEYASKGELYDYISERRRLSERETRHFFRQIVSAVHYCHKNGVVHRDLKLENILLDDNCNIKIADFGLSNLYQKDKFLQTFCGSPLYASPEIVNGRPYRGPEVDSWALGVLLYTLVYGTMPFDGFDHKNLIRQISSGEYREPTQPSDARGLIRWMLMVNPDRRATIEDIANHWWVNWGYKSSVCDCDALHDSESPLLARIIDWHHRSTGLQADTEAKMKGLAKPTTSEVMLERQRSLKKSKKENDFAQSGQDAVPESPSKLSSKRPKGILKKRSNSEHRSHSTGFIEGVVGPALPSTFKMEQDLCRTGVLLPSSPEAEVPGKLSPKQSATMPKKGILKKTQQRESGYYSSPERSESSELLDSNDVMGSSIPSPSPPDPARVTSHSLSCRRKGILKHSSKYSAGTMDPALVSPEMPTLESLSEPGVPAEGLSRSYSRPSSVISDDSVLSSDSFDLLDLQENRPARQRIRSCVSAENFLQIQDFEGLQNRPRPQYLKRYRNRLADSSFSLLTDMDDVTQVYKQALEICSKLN

Sequence of ERK5 (Q13164 whole entry): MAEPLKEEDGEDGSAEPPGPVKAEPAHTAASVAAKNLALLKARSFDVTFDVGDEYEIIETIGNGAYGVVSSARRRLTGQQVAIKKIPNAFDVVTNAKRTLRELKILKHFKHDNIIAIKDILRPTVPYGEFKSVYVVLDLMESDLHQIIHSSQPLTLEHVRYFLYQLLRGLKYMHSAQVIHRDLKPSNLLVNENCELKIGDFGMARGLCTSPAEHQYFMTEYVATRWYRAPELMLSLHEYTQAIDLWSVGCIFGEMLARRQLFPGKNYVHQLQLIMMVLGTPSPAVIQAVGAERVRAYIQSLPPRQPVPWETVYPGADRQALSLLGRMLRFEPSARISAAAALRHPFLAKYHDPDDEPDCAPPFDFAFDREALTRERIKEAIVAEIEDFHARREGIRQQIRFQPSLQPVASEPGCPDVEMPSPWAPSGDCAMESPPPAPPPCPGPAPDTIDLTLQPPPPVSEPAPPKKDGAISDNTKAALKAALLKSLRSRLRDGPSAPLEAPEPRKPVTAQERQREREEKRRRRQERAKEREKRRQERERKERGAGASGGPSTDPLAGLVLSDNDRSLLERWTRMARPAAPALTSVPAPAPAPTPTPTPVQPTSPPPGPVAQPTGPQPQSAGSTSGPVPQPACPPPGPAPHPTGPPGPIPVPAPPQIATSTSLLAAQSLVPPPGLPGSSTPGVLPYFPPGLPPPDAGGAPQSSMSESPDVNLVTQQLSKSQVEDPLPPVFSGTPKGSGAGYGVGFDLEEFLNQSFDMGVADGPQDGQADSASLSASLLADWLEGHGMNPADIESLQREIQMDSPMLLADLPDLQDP
Sequence of CDK7 (P50613 whole entry): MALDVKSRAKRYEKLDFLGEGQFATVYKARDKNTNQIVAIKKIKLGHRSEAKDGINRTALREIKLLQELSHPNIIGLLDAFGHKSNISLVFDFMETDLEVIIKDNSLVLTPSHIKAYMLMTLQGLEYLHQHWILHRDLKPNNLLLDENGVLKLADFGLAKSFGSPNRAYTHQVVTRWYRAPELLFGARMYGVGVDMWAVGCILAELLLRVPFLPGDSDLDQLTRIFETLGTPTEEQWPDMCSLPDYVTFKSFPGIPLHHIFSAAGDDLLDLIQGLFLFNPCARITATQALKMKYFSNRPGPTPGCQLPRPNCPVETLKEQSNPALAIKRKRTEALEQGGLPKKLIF
Sequence of CAMK1 (Q14012 whole entry): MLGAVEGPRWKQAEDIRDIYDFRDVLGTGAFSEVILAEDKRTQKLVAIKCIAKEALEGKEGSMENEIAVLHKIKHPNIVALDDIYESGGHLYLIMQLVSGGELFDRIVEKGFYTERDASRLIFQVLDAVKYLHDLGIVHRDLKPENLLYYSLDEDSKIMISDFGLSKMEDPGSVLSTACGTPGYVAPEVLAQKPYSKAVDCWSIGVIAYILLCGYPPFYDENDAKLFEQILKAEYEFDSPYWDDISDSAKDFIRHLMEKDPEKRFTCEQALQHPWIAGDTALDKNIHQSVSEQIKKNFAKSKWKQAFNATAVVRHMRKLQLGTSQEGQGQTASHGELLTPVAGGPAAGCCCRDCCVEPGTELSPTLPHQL

Which results are given for `COc1cccc(OC)c1C(=O)Nc1cccc(-c2nn3ccccc3c2-c2ccnc(Nc3cccc(F)c3)n2)c1` [UNC10225310A]?
inhibition at 1 µM (CAMK1): 19%; inhibition at 1 µM (CDK7): 22%; inhibition at 1 µM (ERK5): 2%; inhibition at 1 µM (EPHB1): 100%; inhibition at 1 µM (CAMKK2): 0%; inhibition at 1 µM (CSNK1G3): 3%; inhibition at 1 µM (CSNK2A1): 0%; inhibition at 1 µM (AKT1): 4%; inhibition at 1 µM (HUNK): 15%; inhibition at 1 µM (ARK5): 0%

What does the source list for `Cc1ccc(NC(=O)Nc2cccc(C(F)(F)F)c2)cc1` [UNC10225187A]?
inhibition at 1 µM (CAMK1): 7%; inhibition at 1 µM (CDK7): 12%; inhibition at 1 µM (ERK5): 5%; inhibition at 1 µM (EPHB1): 5%; inhibition at 1 µM (CAMKK2): 19%; inhibition at 1 µM (CSNK1G3): 0%; inhibition at 1 µM (CSNK2A1): 1%; inhibition at 1 µM (AKT1): 12%; inhibition at 1 µM (HUNK): 0%; inhibition at 1 µM (ARK5): 0%

For `O=c1cc(N2CCOCC2)nc2n(Cc3cccc(Cl)c3Cl)c(C3CC3)nn12` [UNC10225469A], which inhibition at 1 µM (CAMK1) is on record?
Its inhibition at 1 µM is 0%.

What about the inhibition at 1 µM (CDK7) of the same molecule?
Its inhibition at 1 µM is 5%.

What about the inhibition at 1 µM (ERK5) of the same molecule?
The inhibition at 1 µM was 0%.

What about the inhibition at 1 µM (EPHB1) of the same molecule?
The inhibition at 1 µM was 0%.

What about the inhibition at 1 µM (CAMKK2) of the same molecule?
The inhibition at 1 µM was 8%.

And the inhibition at 1 µM (CSNK1G3)?
The inhibition at 1 µM was 23%.

What about the inhibition at 1 µM (CSNK2A1) of the same molecule?
The inhibition at 1 µM was 16%.

What about the inhibition at 1 µM (AKT1) of the same molecule?
Its inhibition at 1 µM is 12%.

And the inhibition at 1 µM (HUNK)?
The inhibition at 1 µM was 0%.

And the inhibition at 1 µM (ARK5)?
The inhibition at 1 µM was 0%.

`CS(=O)(=O)Cc1ccc(Nc2nccc(-c3c(-c4cccc(NC(=O)C5CCCCC5)c4)nn4ncccc34)n2)cc1` [UNC10225159A] was tested. Which inhibition at 1 µM (CAMK1) did it give?
The inhibition at 1 µM was 0%.

And the inhibition at 1 µM (CDK7)?
Its inhibition at 1 µM is 6%.

And the inhibition at 1 µM (ERK5)?
Its inhibition at 1 µM is 0%.

What about the inhibition at 1 µM (EPHB1) of the same molecule?
Its inhibition at 1 µM is 2%.

And the inhibition at 1 µM (CAMKK2)?
The inhibition at 1 µM was 0%.

What about the inhibition at 1 µM (CSNK1G3) of the same molecule?
Its inhibition at 1 µM is 4%.

What about the inhibition at 1 µM (CSNK2A1) of the same molecule?
The inhibition at 1 µM was 17%.

What about the inhibition at 1 µM (AKT1) of the same molecule?
Its inhibition at 1 µM is 23%.

And the inhibition at 1 µM (HUNK)?
The inhibition at 1 µM was 7%.

What about the inhibition at 1 µM (ARK5) of the same molecule?
Its inhibition at 1 µM is 0%.

How did the inhibition at 1 µM (CAMK1) turn out when `Cn1cc(-c2cnc(N)c3c(-c4ccc5c(c4)CCN5C(=O)Cc4ccccc4)csc23)cn1` [UNC10225012A] was run?
Its inhibition at 1 µM is 0%.

And the inhibition at 1 µM (CDK7)?
Its inhibition at 1 µM is 19%.

And the inhibition at 1 µM (ERK5)?
Its inhibition at 1 µM is 15%.

And the inhibition at 1 µM (EPHB1)?
Its inhibition at 1 µM is 6%.

What about the inhibition at 1 µM (CAMKK2) of the same molecule?
Its inhibition at 1 µM is 19%.

And the inhibition at 1 µM (CSNK1G3)?
The inhibition at 1 µM was 22%.

And the inhibition at 1 µM (CSNK2A1)?
Its inhibition at 1 µM is 0%.

And the inhibition at 1 µM (AKT1)?
The inhibition at 1 µM was 14%.

What about the inhibition at 1 µM (HUNK) of the same molecule?
The inhibition at 1 µM was 0%.

And the inhibition at 1 µM (ARK5)?
The inhibition at 1 µM was 3%.
